Source: the supplement of paper PMC10307832

Key:
Experiment in all cases: relative viability (nuclei count vs DMSO), 5 days (fraction); higher = more cells survive
CAL-12T = system: CAL-12T
Outline: (§1)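 Lung cancer cell lines in 1536-well plates were dosed by pin tool the day after seeding, either with one drug alone or with a fixed anchor-drug dose plus five library-drug doses (not always all listed) in √10 steps. After 5 days, cells were fixed and their nuclei stained in one step (final 0.05% Triton X-100, 1% formaldehyde, 1 ug/ml Hoechst), then counted on 4× images. Relative viability is the nuclei count in treated wells divided by that in vehicle wells. Values are medians of duplicate plates.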

NCI-H1666 = system: NCI-H1666
Outline: as §1

NCI-H1975 = system: NCI-H1975
Outline: as §1

NCI-H1755 = system: NCI-H1755
Outline: as §1

UMC-11 = system: UMC-11
Outline: as §1

ChaGo-K-1 = system: ChaGo-K-1
Outline: as §1

HCC-15 = system: HCC-15
Outline: as §1

COR-L 105 = system: COR-L 105
Outline: as §1

NCI-H2126 = system: NCI-H2126
Outline: as §1

NCI-H3122 = system: NCI-H3122
Outline: as §1

NCI-H322M = system: NCI-H322M
Outline: as §1

NCI-H441 = system: NCI-H441
Outline: as §1

HCC-78 = system: HCC-78
Outline: as §1

NCI-H2023 = system: NCI-H2023
Outline: as §1

EPLC-272H = system: EPLC-272H
Outline: as §1

HOP-62 = system: HOP-62
Outline: as §1

LXF-289 = system: LXF-289
Outline: as §1

NCI-H1915 = system: NCI-H1915
Outline: as §1

EMC-BAC-2 = system: EMC-BAC-2
Outline: as §1

NCI-H2085 = system: NCI-H2085
Outline: as §1

SMILES: CCN(CC)CCCCNc1ncc2cc(-c3cc(OC)cc(OC)c3)c(NC(=O)NC(C)(C)C)nc2n1 + CC1(C)CCC(c2ccc(Cl)cc2)=C(CN2CCN(c3ccc(C(=O)NS(=O)(=O)c4ccc(N[C@H](CCN5CCOCC5)CSc5ccccc5)c(S(=O)(=O)C(F)(F)F)c4)cc3)CC2)C1 [Navitoclax] (partner 0.5 µM)
- relative viability (CAL-12T; first compound 0.01 µM): 1.43
- relative viability (CAL-12T; first compound 0.03162 µM): 1.12
- relative viability (CAL-12T; first compound 0.1 µM): 1.22
- relative viability (CAL-12T; first compound 0.3162 µM): 1.42
- relative viability (CAL-12T; first compound 1 µM): 1.19
- relative viability (NCI-H1666; first compound 0.01 µM): 1.03
- relative viability (NCI-H1666; first compound 0.03162 µM): 1.02
- relative viability (NCI-H1666; first compound 0.1 µM): 0.972
- relative viability (NCI-H1666; first compound 0.3162 µM): 1.12
- relative viability (NCI-H1666; first compound 1 µM): 0.871
- relative viability (NCI-H1975; first compound 0.01 µM): 1.14
- relative viability (NCI-H1975; first compound 0.03162 µM): 1.13
- relative viability (NCI-H1975; first compound 0.1 µM): 1.14
- relative viability (NCI-H1975; first compound 0.3162 µM): 1.23
- relative viability (NCI-H1975; first compound 1 µM): 0.87
- relative viability (NCI-H1755; first compound 0.01 µM): 1.14
- relative viability (NCI-H1755; first compound 0.03162 µM): 1.08
- relative viability (NCI-H1755; first compound 0.1 µM): 1.07
- relative viability (NCI-H1755; first compound 0.3162 µM): 1.09
- relative viability (NCI-H1755; first compound 1 µM): 0.987
- relative viability (UMC-11; first compound 0.01 µM): 0.303
- relative viability (UMC-11; first compound 0.03162 µM): 0.293
- relative viability (UMC-11; first compound 0.1 µM): 0.318
- relative viability (UMC-11; first compound 0.3162 µM): 0.318
- relative viability (UMC-11; first compound 1 µM): 0.308
- relative viability (ChaGo-K-1; first compound 0.01 µM): 0.844
- relative viability (ChaGo-K-1; first compound 0.03162 µM): 0.893
- relative viability (ChaGo-K-1; first compound 0.1 µM): 1.49
- relative viability (ChaGo-K-1; first compound 0.3162 µM): 1.16
- relative viability (ChaGo-K-1; first compound 1 µM): 0.716
- relative viability (HCC-15; first compound 0.01 µM): 0.748
- relative viability (HCC-15; first compound 0.03162 µM): 0.724
- relative viability (HCC-15; first compound 0.1 µM): 0.859
- relative viability (HCC-15; first compound 0.3162 µM): 0.784
- relative viability (HCC-15; first compound 1 µM): 0.7
- relative viability (COR-L 105; first compound 0.01 µM): 0.811
- relative viability (COR-L 105; first compound 0.03162 µM): 0.81
- relative viability (COR-L 105; first compound 0.1 µM): 0.83
- relative viability (COR-L 105; first compound 0.3162 µM): 0.872
- relative viability (COR-L 105; first compound 1 µM): 0.883
- relative viability (NCI-H2126; first compound 0.01 µM): 0.904
- relative viability (NCI-H2126; first compound 0.03162 µM): 0.845
- relative viability (NCI-H2126; first compound 0.1 µM): 0.916
- relative viability (NCI-H2126; first compound 0.3162 µM): 0.927
- relative viability (NCI-H2126; first compound 1 µM): 0.828
- relative viability (NCI-H3122; first compound 0.01 µM): 1.02
- relative viability (NCI-H3122; first compound 0.03162 µM): 1.06
- relative viability (NCI-H3122; first compound 0.1 µM): 1.06
- relative viability (NCI-H3122; first compound 0.3162 µM): 1.03
- relative viability (NCI-H3122; first compound 1 µM): 1.07
- relative viability (NCI-H322M; first compound 0.01 µM): 1.26
- relative viability (NCI-H322M; first compound 0.03162 µM): 1.29
- relative viability (NCI-H322M; first compound 0.1 µM): 1.23
- relative viability (NCI-H322M; first compound 0.3162 µM): 1.22
- relative viability (NCI-H322M; first compound 1 µM): 1.2
- relative viability (NCI-H441; first compound 0.01 µM): 0.547
- relative viability (NCI-H441; first compound 0.03162 µM): 0.714
- relative viability (NCI-H441; first compound 0.1 µM): 1.2
- relative viability (NCI-H441; first compound 0.3162 µM): 0.827
- relative viability (NCI-H441; first compound 1 µM): 0.618
- relative viability (HCC-78; first compound 0.03162 µM): 0.75
- relative viability (HCC-78; first compound 0.1 µM): 0.618
- relative viability (HCC-78; first compound 0.3162 µM): 0.809
- relative viability (HCC-78; first compound 1 µM): 0.64
- relative viability (NCI-H2023; first compound 0.01 µM): 1.04
- relative viability (NCI-H2023; first compound 0.03162 µM): 0.997
- relative viability (NCI-H2023; first compound 0.1 µM): 1
- relative viability (NCI-H2023; first compound 0.3162 µM): 1.04
- relative viability (NCI-H2023; first compound 1 µM): 0.823
- relative viability (EPLC-272H; first compound 0.01 µM): 1.14
- relative viability (EPLC-272H; first compound 0.1 µM): 1.07
- relative viability (EPLC-272H; first compound 0.3162 µM): 1.29
- relative viability (EPLC-272H; first compound 1 µM): 0.995
- relative viability (HOP-62; first compound 0.01 µM): 1.15
- relative viability (HOP-62; first compound 0.03162 µM): 1.13
- relative viability (HOP-62; first compound 0.1 µM): 1.29
- relative viability (HOP-62; first compound 0.3162 µM): 0.974
- relative viability (HOP-62; first compound 1 µM): 1.06
- relative viability (LXF-289; first compound 0.01 µM): 1.02
- relative viability (LXF-289; first compound 0.03162 µM): 0.968
- relative viability (LXF-289; first compound 0.1 µM): 1.07
- relative viability (LXF-289; first compound 0.3162 µM): 0.939
- relative viability (LXF-289; first compound 1 µM): 0.834
- relative viability (NCI-H1915; first compound 0.01 µM): 0.826
- relative viability (NCI-H1915; first compound 0.03162 µM): 0.795
- relative viability (NCI-H1915; first compound 0.1 µM): 0.838
- relative viability (NCI-H1915; first compound 0.3162 µM): 0.749
- relative viability (NCI-H1915; first compound 1 µM): 0.805
- relative viability (EMC-BAC-2; first compound 0.01 µM): 1.38
- relative viability (EMC-BAC-2; first compound 0.03162 µM): 1.24
- relative viability (EMC-BAC-2; first compound 0.1 µM): 1.24
- relative viability (EMC-BAC-2; first compound 0.3162 µM): 1.28
- relative viability (EMC-BAC-2; first compound 1 µM): 0.899
- relative viability (NCI-H2085; first compound 0.01 µM): 1.08
- relative viability (NCI-H2085; first compound 0.03162 µM): 1.22
- relative viability (NCI-H2085; first compound 0.1 µM): 1.33
- relative viability (NCI-H2085; first compound 0.3162 µM): 1.22
- relative viability (NCI-H2085; first compound 1 µM): 1.06
